Assay results as given in ChEMBL document CHEMBL1201862, “PubChem BioAssay data set” (2004).
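All cell lines were grown in 96-well plates and treated with compound for 48 hours. Here, GI50 denotes the concentration required for 50% inhibition of growth.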 Calls of active or inactive are those of the source. Cut-off read from the data, not from the text of the source: active = GI50 up to about 1.1 µM and inactive = higher.

Legend:
Experiment in all cases: inhibition of tumour cell growth, NCI panel, 48 h
[1] = test system: ACHN
[2] = test system: CAKI-1
[3] = test system: CCRF-CEM
[4] = test system: HCT-116
[5] = test system: HCT-15
[6] = test system: HL-60
[7] = test system: HT-29
[8] = test system: LOX IMVI
[9] = test system: MDA-N
[10] = test system: MOLT-4
[11] = test system: NCI-H522
[12] = test system: NCI/ADR-RES
[13] = test system: OVCAR-4
[14] = test system: SF-295
[15] = test system: SN12C
[16] = test system: TK-10
[17] = test system: UACC-257
[18] = test system: UO-31
[19] = test system: RXF 393

| Compound | GI50 [1] | GI50 [2] | GI50 [3] | GI50 [4] | GI50 [5] [µM] | GI50 [6] | GI50 [7] | GI50 [8] | GI50 [9] | GI50 [10] | GI50 [11] | GI50 [12] | GI50 [13] | GI50 [14] | GI50 [15] | GI50 [16] | GI50 [17] | GI50 [18] | GI50 [19] |
| --- | --- | --- | --- | --- | --- | --- | --- | --- | --- | --- | --- | --- | --- | --- | --- | --- | --- | --- | --- |
| CCCCN(CCCC)CCC(O)c1cc2c(Cl)cc(Cl)cc2c2cc(C(F)(F)F)ccc12 (centres undefined) | 12 µM (inactive) | 12.2 µM (inactive) | 11.2 µM (inactive) | 12.2 µM (inactive) | 5.4 | 5.9 µM (inactive) | 13.6 µM (inactive) | 6.52 µM (inactive) | 12.7 µM (inactive) | 8.57 µM (inactive) | 17.5 µM (inactive) | 12.1 µM (inactive) | 4.78 µM (inactive) | 12.4 µM (inactive) | 5.05 µM (inactive) | 13.4 µM (inactive) | 14.5 µM (inactive) | 4.2 µM (inactive) | – |
| O=C(OCC1CCCN2CCCCC12)c1cccnc1 (centres undefined) | > 100 µM (inactive) | > 100 µM (inactive) | > 100 µM (inactive) | > 100 µM (inactive) | > 100 | > 100 µM (inactive) | > 100 µM (inactive) | > 100 µM (inactive) | > 100 µM (inactive) | > 100 µM (inactive) | – | > 100 µM (inactive) | > 100 µM (inactive) | > 100 µM (inactive) | > 100 µM (inactive) | > 100 µM (inactive) | > 100 µM (inactive) | > 100 µM (inactive) | > 100 µM (inactive) |
| CN(C)CC1CCCCCC(Br)C1=O (centres undefined) | 6.79 µM (inactive) | 6.59 µM (inactive) | 0.352 µM (active) | 2.05 µM (inactive) | 9.23 | 6.12 µM (inactive) | 7.76 µM (inactive) | 12.7 µM (inactive) | – | 0.946 µM (active) | 3.66 µM (inactive) | 13.9 µM (inactive) | 15 µM (inactive) | > 64.6 µM (inactive) | 16.8 µM (inactive) | 4.06 µM (inactive) | 9.93 µM (inactive) | 13.6 µM (inactive) | 15.4 µM (inactive) |
| CC(C)Oc1c(O)c2c3c(oc(=O)n3C=CC2c2ccccc2)c1OC(C)C (centres undefined) | > 10 µM (inactive) | 29.2 µM (inactive) | – | 28.8 µM (inactive) | 12.8 | 27 µM (inactive) | 24.2 µM (inactive) | 37.8 µM (inactive) | 36.3 µM (inactive) | 31 µM (inactive) | – | 27.5 µM (inactive) | 24.6 µM (inactive) | 20.8 µM (inactive) | 36.5 µM (inactive) | 22.1 µM (inactive) | 25.1 µM (inactive) | 14.2 µM (inactive) | – |
| Nc1c2ccccc2nc2nccnc12 | > 100 µM (inactive) | > 100 µM (inactive) | > 100 µM (inactive) | > 100 µM (inactive) | > 100 | > 100 µM (inactive) | > 100 µM (inactive) | > 100 µM (inactive) | – | > 100 µM (inactive) | > 100 µM (inactive) | – | > 100 µM (inactive) | > 100 µM (inactive) | > 100 µM (inactive) | > 100 µM (inactive) | > 100 µM (inactive) | > 100 µM (inactive) | > 100 µM (inactive) |
| C=C1C/C(=C/C)C(=O)O[C@@H]2CCN3CC=C(COC(=O)[C@]1(C)O)[C@H]23 [SENECIPHYLLINE] | > 100 µM (inactive) | > 100 µM (inactive) | > 100 µM (inactive) | > 100 µM (inactive) | > 100 | > 100 µM (inactive) | > 100 µM (inactive) | > 100 µM (inactive) | > 100 µM (inactive) | – | > 100 µM (inactive) | > 100 µM (inactive) | > 100 µM (inactive) | > 100 µM (inactive) | – | > 100 µM (inactive) | > 100 µM (inactive) | > 100 µM (inactive) | – |
| COc1cc2nc(-c3cccs3)nc(Nc3ccccc3C(=O)NN)c2cc1OC | > 100 µM (inactive) | > 100 µM (inactive) | > 100 µM (inactive) | > 100 µM (inactive) | > 100 | 44.9 µM (inactive) | > 100 µM (inactive) | 51.5 µM (inactive) | – | > 100 µM (inactive) | > 100 µM (inactive) | > 100 µM (inactive) | 27.8 µM (inactive) | 66.8 µM (inactive) | > 100 µM (inactive) | > 100 µM (inactive) | > 100 µM (inactive) | > 100 µM (inactive) | – |
| COC(=O)c1ccc2c(c1)CC1(C2)Cc2ccc3c(c2C1)CCC3 (centres undefined) | 57 µM (inactive) | 0.0543 µM (active) | 19.3 µM (inactive) | 23.6 µM (inactive) | 20.1 | 14.8 µM (inactive) | 17.5 µM (inactive) | 20.8 µM (inactive) | 3.63 µM (inactive) | 15 µM (inactive) | 20.7 µM (inactive) | – | 0.809 µM (active) | 24.9 µM (inactive) | 18.6 µM (inactive) | > 100 µM (inactive) | 20.2 µM (inactive) | – | 17.7 µM (inactive) |
| CC(C)CC(=O)CC(C)[C@]1(CCCOCc2ccccc2)C(=O)N2CCC3(C[C@@]24CCC[C@H]41)OCCO3 (some centres undefined) | – | > 10 µM (inactive) | > 10 µM (inactive) | – | > 10 | > 10 µM (inactive) | – | – | > 10 µM (inactive) | > 10 µM (inactive) | > 10 µM (inactive) | > 10 µM (inactive) | > 10 µM (inactive) | > 10 µM (inactive) | > 10 µM (inactive) | > 10 µM (inactive) | – | > 10 µM (inactive) | – |
| COc1cc2oc(=O)cc(C)c2c(OC)c1OC | > 100 µM (inactive) | – | > 100 µM (inactive) | > 100 µM (inactive) | > 100 | – | > 100 µM (inactive) | > 100 µM (inactive) | > 100 µM (inactive) | > 100 µM (inactive) | – | > 100 µM (inactive) | > 100 µM (inactive) | > 100 µM (inactive) | > 100 µM (inactive) | > 100 µM (inactive) | > 100 µM (inactive) | 38.7 µM (inactive) | – |
| O=[N+]([O-])c1cc2[nH]nnc2c2nonc12 | 23.4 µM (inactive) | 29.7 µM (inactive) | 14.4 µM (inactive) | 20.5 µM (inactive) | 29.2 | 5.45 µM (inactive) | 29.6 µM (inactive) | 20.1 µM (inactive) | 20.6 µM (inactive) | 6.18 µM (inactive) | 14.3 µM (inactive) | 48.3 µM (inactive) | 30.1 µM (inactive) | 31.7 µM (inactive) | 41.5 µM (inactive) | 40.4 µM (inactive) | 22.9 µM (inactive) | 17.9 µM (inactive) | – |
| CCOC(=O)C(Cc1c(C=O)[nH]c2ccccc12)(NC(=O)c1ccccc1)C(=O)OCC | 14.4 µM (inactive) | – | 6.87 µM (inactive) | – | 6.7 | > 100 µM (inactive) | 16.4 µM (inactive) | – | – | 6.65 µM (inactive) | – | – | – | 14.4 µM (inactive) | 13.2 µM (inactive) | 22.4 µM (inactive) | 16.9 µM (inactive) | 16.1 µM (inactive) | 11 µM (inactive) |
| O=C(C/C(=N\NC(=O)C[n+]1ccccc1)C(=O)Nc1nc2ccc([N+](=O)[O-])cc2s1)CC(c1ccccc1)c1c(O)c2ccccc2oc1=O (centres undefined) | > 100 µM (inactive) | > 100 µM (inactive) | > 100 µM (inactive) | > 100 µM (inactive) | – | > 100 µM (inactive) | > 100 µM (inactive) | – | – | > 100 µM (inactive) | 99.5 µM (inactive) | – | > 100 µM (inactive) | > 100 µM (inactive) | > 100 µM (inactive) | > 100 µM (inactive) | > 100 µM (inactive) | 67.5 µM (inactive) | > 100 µM (inactive) |
| CCCCCCCCCCCCCCCCCCNc1ccn(C2OC(COP(=O)(O)OCCCCCCCCCCCCCCCC)C(O)C2O)c(=O)n1 (centres undefined) | > 100 µM (inactive) | > 100 µM (inactive) | 77.8 µM (inactive) | > 100 µM (inactive) | > 100 | 58.3 µM (inactive) | > 100 µM (inactive) | 82 µM (inactive) | – | > 100 µM (inactive) | 51.3 µM (inactive) | > 100 µM (inactive) | > 100 µM (inactive) | > 100 µM (inactive) | > 100 µM (inactive) | > 100 µM (inactive) | > 100 µM (inactive) | > 100 µM (inactive) | > 100 µM (inactive) |
| Cc1ccsc1/C=N/Nc1nncc2ccccc12 | > 100 µM (inactive) | > 100 µM (inactive) | 53.2 µM (inactive) | > 100 µM (inactive) | > 100 | – | > 100 µM (inactive) | 97.1 µM (inactive) | > 100 µM (inactive) | 44.8 µM (inactive) | – | > 100 µM (inactive) | > 100 µM (inactive) | > 100 µM (inactive) | > 100 µM (inactive) | > 100 µM (inactive) | > 100 µM (inactive) | 21.9 µM (inactive) | 15.8 µM (inactive) |
| N#C/C(C(=O)Nc1ccc(Cl)cc1)=C(/N)N1CCCC1 | > 100 µM (inactive) | > 100 µM (inactive) | > 100 µM (inactive) | > 100 µM (inactive) | > 100 | 0.635 µM (active) | – | > 100 µM (inactive) | > 100 µM (inactive) | > 100 µM (inactive) | – | > 100 µM (inactive) | – | > 100 µM (inactive) | > 100 µM (inactive) | – | > 100 µM (inactive) | > 100 µM (inactive) | – |
| O=C1C(NCCc2ccc(O)c([N+](=O)[O-])c2)=CC(=O)c2[nH]cnc21 | 44.3 µM (inactive) | – | – | 24.7 µM (inactive) | 39.7 | 21.2 µM (inactive) | 34.6 µM (inactive) | 15.8 µM (inactive) | 16.3 µM (inactive) | 19.8 µM (inactive) | 18.6 µM (inactive) | > 100 µM (inactive) | – | 10.5 µM (inactive) | 26.2 µM (inactive) | 36.1 µM (inactive) | 18.3 µM (inactive) | 76.9 µM (inactive) | – |
